Experimental data as given in ChEMBL document CHEMBL1909046, “DrugMatrix in vitro pharmacology data”.
pIC50, pKi: −log10 of the molar value.

Experiments:
[1] = DRUGMATRIX: Calcium Channel Type L, Dihydropyridine radioligand binding (ligand: [3H] Nitrendipine); assay type: cell membranes, Rattus norvegicus, Wistar, Cerebral cortex, Membrane; conditions: Not Active = under 50% inhibition at 10 µM
[2] = target: Vascular endothelial growth factor receptor 1 (Homo sapiens, UniProt P17948); test: biochemical; assay type: cell-based, HUVEC; conditions: for IC50: huvec; as to all read-outs here: in other assays of this panel Not Active means under 50% inhibition at 10 µM
Carbonic anhydrase 2 = Carbonic anhydrase 2 (Homo sapiens, UniProt P00918); test: DRUGMATRIX: Carbonic Anhydrase II enzyme inhibition (substrate: 4-Nitrophenyl acetate (4-NPA)); assay type: tissue-based; conditions: erythrocyte; Not Active = under 50% inhibition at 10 µM
[3] = target: T1, C-X-C chemokine receptor type 1 (Homo sapiens, UniProt P25024); also: in other assays of this panel Not Active means under 50% inhibition at 10 µM
T1 sequence (P25024 whole entry): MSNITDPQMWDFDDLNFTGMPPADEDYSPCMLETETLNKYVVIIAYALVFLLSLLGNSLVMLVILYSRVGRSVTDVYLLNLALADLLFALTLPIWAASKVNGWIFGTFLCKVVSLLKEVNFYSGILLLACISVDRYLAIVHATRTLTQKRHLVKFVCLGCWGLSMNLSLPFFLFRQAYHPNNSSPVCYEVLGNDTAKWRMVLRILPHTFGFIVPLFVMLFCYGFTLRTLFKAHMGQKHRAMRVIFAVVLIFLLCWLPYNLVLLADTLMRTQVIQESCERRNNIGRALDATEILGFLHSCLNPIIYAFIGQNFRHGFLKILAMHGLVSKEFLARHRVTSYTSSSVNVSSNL

[4] = DRUGMATRIX: Imidazoline I2, Central radioligand binding (ligand: [3H] Idazoxan); assay type: cell membranes, Rattus norvegicus, Wistar, Cerebral cortex, Membrane; conditions: Not Active = under 50% inhibition at 10 µM; for pKi: read-out: Ki
[5] = target: Kappa-type opioid receptor (Homo sapiens, UniProt P41145); test: DRUGMATRIX: Opiate kappa (OP2, KOP) radioligand binding (ligand: [3H] Diprenorphine); assay type: cell membranes, HEK293, Membrane; conditions: hek293; Not Active = under 50% inhibition at 10 µM
[6] = DRUGMATRIX: Purinergic P2X radioligand binding (ligand: [3H] alpha, beta-Methylene-ATP); assay type: cell membranes, Oryctolagus cuniculus, New Zealand albino, Urinary bladder, Membrane; conditions: Not Active = under 50% inhibition at 10 µM

Kappa-type opioid receptor, sequence (P41145 whole entry): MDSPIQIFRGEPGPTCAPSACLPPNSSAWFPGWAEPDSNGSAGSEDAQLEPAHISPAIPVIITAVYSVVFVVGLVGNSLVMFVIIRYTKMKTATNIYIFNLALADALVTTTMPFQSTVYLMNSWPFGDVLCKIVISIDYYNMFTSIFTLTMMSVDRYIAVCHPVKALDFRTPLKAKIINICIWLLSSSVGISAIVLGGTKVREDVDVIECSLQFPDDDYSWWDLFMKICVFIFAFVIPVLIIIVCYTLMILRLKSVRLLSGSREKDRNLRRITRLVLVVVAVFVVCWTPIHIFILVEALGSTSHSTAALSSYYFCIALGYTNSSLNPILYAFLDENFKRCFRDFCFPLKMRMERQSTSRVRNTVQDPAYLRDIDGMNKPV
Vascular endothelial growth factor receptor 1, sequence (P17948 whole entry): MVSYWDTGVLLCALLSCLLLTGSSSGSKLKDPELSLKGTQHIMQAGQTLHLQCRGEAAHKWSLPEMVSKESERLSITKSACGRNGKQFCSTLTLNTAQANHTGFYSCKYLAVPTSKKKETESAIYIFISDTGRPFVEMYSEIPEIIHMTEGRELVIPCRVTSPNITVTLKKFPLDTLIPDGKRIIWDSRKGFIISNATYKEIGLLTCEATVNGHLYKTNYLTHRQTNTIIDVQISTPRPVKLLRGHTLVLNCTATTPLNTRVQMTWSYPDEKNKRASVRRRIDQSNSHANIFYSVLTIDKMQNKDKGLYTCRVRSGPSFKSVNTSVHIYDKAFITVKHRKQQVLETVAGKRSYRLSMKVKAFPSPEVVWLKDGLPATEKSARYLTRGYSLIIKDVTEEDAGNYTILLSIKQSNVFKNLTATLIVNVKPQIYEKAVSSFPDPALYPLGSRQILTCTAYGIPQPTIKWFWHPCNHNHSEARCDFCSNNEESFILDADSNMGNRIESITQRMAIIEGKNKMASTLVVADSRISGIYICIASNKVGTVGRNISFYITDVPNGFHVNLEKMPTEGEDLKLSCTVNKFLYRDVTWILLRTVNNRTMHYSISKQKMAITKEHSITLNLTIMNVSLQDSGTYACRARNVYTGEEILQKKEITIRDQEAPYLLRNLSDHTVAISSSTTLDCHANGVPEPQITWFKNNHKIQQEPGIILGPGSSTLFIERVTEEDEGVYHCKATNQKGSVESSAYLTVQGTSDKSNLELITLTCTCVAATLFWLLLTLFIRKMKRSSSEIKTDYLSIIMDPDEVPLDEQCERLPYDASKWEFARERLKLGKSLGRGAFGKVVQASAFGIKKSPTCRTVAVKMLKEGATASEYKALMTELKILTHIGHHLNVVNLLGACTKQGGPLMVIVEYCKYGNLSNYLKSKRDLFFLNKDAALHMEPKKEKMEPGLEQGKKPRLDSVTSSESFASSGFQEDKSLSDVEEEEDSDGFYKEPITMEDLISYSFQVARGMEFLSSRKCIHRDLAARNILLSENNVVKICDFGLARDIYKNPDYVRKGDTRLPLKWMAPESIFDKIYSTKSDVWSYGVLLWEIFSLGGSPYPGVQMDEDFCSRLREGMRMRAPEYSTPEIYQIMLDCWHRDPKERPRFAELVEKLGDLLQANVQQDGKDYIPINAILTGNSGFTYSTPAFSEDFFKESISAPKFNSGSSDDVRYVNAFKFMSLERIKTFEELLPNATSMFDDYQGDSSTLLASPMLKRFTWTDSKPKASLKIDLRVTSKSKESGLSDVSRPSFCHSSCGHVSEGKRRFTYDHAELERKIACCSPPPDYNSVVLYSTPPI

C[n+]1ccccc1/C=N/O.[Cl-] [PRALIDOXIME CHLORIDE]
Not Active: IC50 [1] | Ki [1] | IC50 [2] | IC50 (Carbonic anhydrase 2) | IC50 [3] | IC50 [4] | Ki [4] | IC50 [5] | IC50 [6] | Ki [6]

COc1cc2nc(N3CCN(C(=O)c4ccco4)CC3)nc(N)c2cc1OC [PRAZOSIN]
6.20: pKi [4]
Not Active: IC50 [1] | Ki [1] | IC50 [2] | IC50 (Carbonic anhydrase 2) | IC50 [3] | IC50 [5] | IC50 [6] | Ki [6]

Cc1c(OCC(F)(F)F)ccnc1C[S+]([O-])c1nc2ccccc2[nH]1 (stereo not given) [LANSOPRAZOLE]
Not Active: IC50 [1] | Ki [1] | IC50 [2] | IC50 (Carbonic anhydrase 2) | IC50 [3] | IC50 [4] | Ki [4] | IC50 [5] | IC50 [6] | Ki [6]

CN1[C@@H]2CC[C@H]1C[C@@H](OC(=O)C(CO)c1ccccc1)C2 (stereo not given in full) [ATROPINE]
Not Active: IC50 [1] | Ki [1] | IC50 [2] | IC50 (Carbonic anhydrase 2) | IC50 [3] | IC50 [4] | Ki [4] | IC50 [5] | IC50 [6] | Ki [6]

COc1ccc(C2C(=O)c3ccccc3C2=O)cc1 [ANISINDIONE]
Not Active: IC50 [1] | Ki [1] | IC50 [2] | IC50 (Carbonic anhydrase 2) | IC50 [3] | IC50 [4] | Ki [4] | IC50 [5] | IC50 [6] | Ki [6]

COC(=O)Nc1nc2ccc([S+]([O-])c3ccccc3)cc2[nH]1 (stereo not given) [OXFENDAZOLE]
Not Active: IC50 [1] | Ki [1] | IC50 [2] | IC50 (Carbonic anhydrase 2) | IC50 [3] | IC50 [4] | Ki [4] | IC50 [5] | IC50 [6] | Ki [6]

CC(C(=O)O)c1ccc2oc(-c3ccc(Cl)cc3)nc2c1 (stereo not given) [BENOXAPROFEN]
Not Active: IC50 [1] | Ki [1] | IC50 [2] | IC50 (Carbonic anhydrase 2) | IC50 [3] | IC50 [4] | Ki [4] | IC50 [5] | IC50 [6] | Ki [6]

Cc1cc2c(OCC(CNC(C)(C)C)OC(=O)c3ccccc3)cccc2[nH]1 (stereo not given) [BOPINDOLOL]
Not Active: IC50 [1] | Ki [1] | IC50 [2] | IC50 (Carbonic anhydrase 2) | IC50 [3] | IC50 [4] | Ki [4] | IC50 [5] | IC50 [6] | Ki [6]

Nc1ccn([C@@H]2O[C@H](CO)[C@@H](O)C2(F)F)c(=O)n1 [GEMCITABINE]
Not Active: IC50 [1] | Ki [1] | IC50 [2] | IC50 (Carbonic anhydrase 2) | IC50 [3] | IC50 [4] | Ki [4] | IC50 [5] | IC50 [6] | Ki [6]

COc1ccc2[nH]cc(CCNC(C)=O)c2c1 [MELATONIN]
Not Active: IC50 [1] | Ki [1] | IC50 [2] | IC50 (Carbonic anhydrase 2) | IC50 [3] | IC50 [4] | Ki [4] | IC50 [5] | IC50 [6] | Ki [6]

C#CC1(O)CC[C@H]2[C@@H]3CCC4=CC(=O)CC[C@@H]4[C@H]3CC[C@@]21CC (stereo not given in full) [NORGESTREL]
Not Active: IC50 [1] | Ki [1] | IC50 [2] | IC50 (Carbonic anhydrase 2) | IC50 [3] | IC50 [4] | Ki [4] | IC50 [5] | IC50 [6] | Ki [6]

C[C@@H]1CC[C@@]2(OC1)O[C@H]1[C@@H](O)[C@H]3[C@@H]4CC[C@H]5C[C@@H](O[C@@H]6O[C@H](CO)[C@H](O[C@@H]7O[C@H](CO)C(O)[C@H](O[C@@H]8OC[C@@H](O)[C@H](O)[C@H]8O)[C@H]7O[C@@H]7O[C@H](CO)[C@H](O)[C@H](O[C@@H]8O[C@H](CO)[C@@H](O)[C@H](O)[C@H]8O)[C@H]7O)[C@H](O)[C@H]6O)[C@H](O)C[C@]5(C)[C@H]4CC[C@]3(C)[C@H]1[C@@H]2C (stereo not given in full) [DIGITONIN]
Not Active: IC50 [1] | Ki [1] | IC50 (Carbonic anhydrase 2) | IC50 [3] | IC50 [4] | Ki [4] | IC50 [5] | IC50 [6] | Ki [6]
6.00: pKi ([2]; read-out: Ki)
5.41: pIC50 ([2]; read-out: IC50)

Oc1c(Cl)cc(Cl)c(Cl)c1Cc1c(O)c(Cl)cc(Cl)c1Cl [HEXACHLOROPHENE]
Not Active: IC50 [1] | Ki [1] | IC50 [2] | IC50 (Carbonic anhydrase 2) | IC50 [3] | IC50 [4] | Ki [4] | IC50 [5] | IC50 [6] | Ki [6]

O=C1CN=C(c2ccccc2Cl)c2cc([N+](=O)[O-])ccc2N1 [CLONAZEPAM]
Not Active: IC50 [1] | Ki [1] | IC50 [2] | IC50 (Carbonic anhydrase 2) | IC50 [3] | IC50 [4] | Ki [4] | IC50 [5] | IC50 [6] | Ki [6]

CCn1cc(C(=O)O)c(=O)c2cnc(N3CCCC3)nc21 [PIROMIDIC ACID]
Not Active: IC50 [1] | Ki [1] | IC50 [2] | IC50 (Carbonic anhydrase 2) | IC50 [3] | IC50 [4] | Ki [4] | IC50 [5] | IC50 [6] | Ki [6]

C[C@@H]1C[C@H]2[C@@H]3CCC4=CC(=O)C=C[C@]4(C)[C@@]3(F)[C@@H](O)C[C@]2(C)[C@H]1C(=O)CO [DESOXIMETASONE]
Not Active: IC50 [1] | Ki [1] | IC50 [2] | IC50 (Carbonic anhydrase 2) | IC50 [3] | IC50 [4] | Ki [4] | IC50 [5] | IC50 [6] | Ki [6]

CN(C)CC[C@@H](c1ccc(Cl)cc1)c1ccccn1 [DEXCHLORPHENIRAMINE]
4.82: pIC50 ([4]; read-out: IC50)
Not Active: IC50 [1] | Ki [1] | IC50 [2] | IC50 (Carbonic anhydrase 2) | IC50 [3] | IC50 [5] | IC50 [6] | Ki [6]
4.99: pKi [4]
